Literature values, collected in patent publication US20170340738A1, “STABLE ACIDIC INSULIN FORMULATIONS” (MERCK SHARP & DOHME CORP., priority 2012, published 2017).

Settings: administered once daily subcutaneously

## Gly(A21), Arg(B31), Arg(B32)-human insulin [insulin glargine]
  Basal coverage: 24 h
